Assay results as given in patent US20240116946A1 (Gilead Sciences, Inc., priority 2022, published 2024).
Where two headings read alike, the source gives them in different places.

Legend:
[1] = target: recombinant SARS-CoV-2 Main protease (Mpro) (Severe acute respiratory syndrome coronavirus 2 (2019-nCoV) (SARS-CoV-2), UniProt P0DTD1); assay: Cov Mpro Biochemical IC50 Assay; conditions: read-out: MPro IC50
[2] = tested on: SARS-CoV-2-NLuc; assay: microbe, parasite or virus in culture; assay type: cell-based, SARS Coronavirus 2
[3] = recombinant SARS-CoV-2 Mpro 7.5 nM, fluorogenic peptide substrate 40 μM
[4] = Severe acute respiratory syndrome coronavirus, 48 h, read-out: MPro EC50
[5] = recombinant SARS-CoV-2 Mpro, fluorogenic peptide substrate
[6] = Severe acute respiratory syndrome coronavirus, 48 h; read-out: MPro EC50

Compound | IC50 [1, 3] [nM] | EC50 [2, 4] [nM] | EC50 ([2]; read-out: MPro EC50) [nM] | IC50 [1, 5] [nM] | EC50 [2, 6] [nM]
Cc1ccc2cncc(-n3c(=O)[nH]c4cc(-c5ccccc5Cl)sc4c3=O)c2n1 [Example 453, 6-(2-chlorophenyl)-3-(2-methyl-1,6-naphthyridin-8-yl)thieno[3,2-d]pyrimidine-2,4(1H,3H)-dione] | 3.83 | 22.1 |  |  | 
COc1cc(-c2cc3[nH]c(=O)n(-c4cncc5cccc(Cl)c45)c(=O)c3s2)c(Cl)cc1F [Example 1074] | 4.32 |  | 5.89 |  | 
COc1ccc(C#N)c(-c2cc3[nH]c(=O)n(-c4cncc5cccnc45)c(=O)c3s2)c1 [Example 460, 2-(3-(1,6-naphthyridin-8-yl)-2,4-dioxo-1,2,3,4-tetrahydrothieno[3,2-d]pyrimidin-6-yl)-4-methoxybenzonitrile] | 9.01 | 60.7 |  |  | 
COc1cc(-c2cc3c(s2)c(=O)n(-c2cncc4cccc(F)c24)c(=O)n3CCC#N)c(C#N)cc1F [Example 943] | 10.3 | 10 |  |  | 
O=c1[nH]c2cc(-c3c(Cl)cccc3-c3cncc(F)c3)ccc2c(=O)n1-c1cncc2ccccc12 [Example 207] |  | 13.6 |  | 17.6 | 
O=c1[nH]c2cc(-c3cc(Cl)cc(Cl)c3)ccc2c(=O)n1-c1cncc2ccccc12 [Example 53] |  | 4330 |  | 33200 | 
Cc1nnc(-c2cccc(-c3ccc4c(=O)n(-c5cncc6ccccc56)c(=O)[nH]c4c3)c2)o1 [Example 39] |  |  |  | 7750 | 23400
Cc1cn(C)nc1-c1cccc(Cl)c1-c1cc2[nH]c(=O)n(-c3cncc4ccccc34)c(=O)c2s1 [Example 519] | 10.9 | 31.6 |  |  | 
COc1cc(-c2cc3[nH]c(=O)n(-c4cncc5ccc(F)cc45)c(=O)c3s2)c(Cl)cc1F [Example 763] | 10.2 | 13.4 |  |  | 
COc1ccc(C#N)c(-c2cc3[nH]c(=O)n(-c4cncc5ccc(OC)cc45)c(=O)c3s2)c1 [Example 626] | 7.68 | 32.2 |  |  | 
COc1ccc(-c2cc3[nH]c(=O)n(-c4cncc5ccccc45)c(=O)c3s2)c(C#N)c1 [Example 539] | 141 | 675 |  |  | 
COc1cc(-c2cc3c(s2)c(=O)n(-c2cncc(Cl)c2Cl)c(=O)n3CCC#N)c(Cl)cc1F [Example 928] | 12.2 | 16.2 |  |  | 
CC(C)(O)[C@H](F)CNc1ccc2cncc(-n3c(=O)[nH]c4cc(-c5ccccc5Cl)sc4c3=O)c2c1 [Example 386] |  | 56.2 |  | 3.96 | 
O=c1[nH]c2cc(-c3c(Cl)cccc3-c3cn(CCO)nn3)ccc2c(=O)n1-c1cncc2ccccc12 [Example 293] |  | 748 |  | 67.8 | 
Cc1c(F)cncc1-n1c(=O)c2sc(-c3ccccc3Cl)cc2n(CCC#N)c1=O [Example 1023] | 19.3 |  |  |  | 59.3
COc1cc(-c2cc3c(s2)c(=O)n(-c2cncc4ccc(C#N)cc24)c(=O)n3CCC#N)c(Cl)cc1F [Example 1062] | 4.87 | 5.42 |  |  | 
O=c1[nH]c2cc(-c3ccccc3Cl)sc2c(=O)n1-c1cncc2ncccc12 [Example 134] |  | 150 |  | 63.3 | 
N#Cc1cncc(-c2cccc(Cl)c2-c2ccc3c(=O)n(-c4cncc5ccccc45)c(=O)[nH]c3c2)c1 [Example 298] |  | 10.8 |  | 6.29 | 
COc1ccc(C#N)c(-c2cc3[nH]c(=O)n(-c4cncc5ncsc45)c(=O)c3s2)c1 [Example 484] | 38.9 | 482 |  |  | 

Compound | IC50 [1, 3] [nM] | EC50 [2, 4] [nM] | EC50 ([2]; read-out: MPro EC50) [nM] | IC50 [1, 5] [nM] | EC50 [2, 6] [nM]
COc1cc(-c2cc3c(s2)c(=O)n(-c2cncc4ccccc24)c(=O)n3[C@H]2C[C@@H](C#N)C2)c(Cl)cc1F [Example 694] | 19.3 | 61 |  |  | 
CCn1cc2cncc(-n3c(=O)c4sc(-c5cc(OC)c(F)cc5Cl)cc4n(CCC#N)c3=O)c2n1 [Example 913] | 4.31 | 4.53 |  |  | 
CN1C(=O)CC(C)(C)c2cc(-c3cccc(Cl)c3-c3ccc4c(=O)n(-c5cncc6ccccc56)c(=O)[nH]c4c3)ccc21 [Example 315] |  | 40.2 |  | 42 | 
O=c1[nH]c2cc(-c3ccccc3Cl)ccc2c(=O)n1-c1cncc2ccccc12 [Example 73, 7-(2-chlorophenyl)-3-(isoquinolin-4-yl)quinazoline-2,4(1H,3H)-dione] |  | 262 |  | 159 | 
COCCNc1ccc2cncc(-n3c(=O)[nH]c4cc(-c5ccccc5Cl)sc4c3=O)c2c1 [Example 403] | 6.9 | 11.1 |  |  | 
N#CCCn1c(=O)n(-c2cncc3ccc(F)cc23)c(=O)c2sc(-c3ccc(F)cc3Cl)cc21 [Example 948] | 12.5 | 12.1 |  |  | 
COc1cc(-c2cc3c(s2)c(=O)n(-c2cncc4nn(C)c(C)c24)c(=O)n3CCC#N)c(C#N)cc1F [Example 895] | 8.43 | 218 |  |  | 
Cc1cnnc(-n2c(=O)c3sc(-c4ccccc4C#N)cc3n(CCC#N)c2=O)c1 [Example 813] | 32.5 |  |  |  | 362
COc1cc(C#N)c(-c2cc3[nH]c(=O)n(-c4cncc5ccccc45)c(=O)c3s2)cc1OC [Example 544] | 16.8 | 202 |  |  | 
COc1cc(-c2cc3c(s2)c(=O)n(-c2cncc4cnn(C)c24)c(=O)n3CC#N)c(Cl)cc1F (single isomer, unassigned) [Example 1013, 2-[6-(2-chloro-4-fluoro-5-methoxy-phenyl)-3-(1-methylpyrazolo[4,3-c]pyridin-7-yl)-2,4-dioxo-thieno[3,2-d]pyrimidin-1-yl]acetonitrile] | 1.42 |  | 16.5 |  | 
COc1cc(-c2cc3[nH]c(=O)n(-c4cncc5cccc(Cl)c45)c(=O)c3s2)c(Cl)cc1F [Example 1078] | 8.83 |  |  |  | 9.65
COc1cc(-c2cc3c(s2)c(=O)n(-c2cncc4ccccc24)c(=O)n3CC(C)C#N)c(Cl)cc1F (centres unmarked) [Example 1096, 3-(6-(2-chloro-4-fluoro-5-methoxyphenyl)-3-(isoquinolin-4-yl)-2,4-dioxo-3,4-dihydrothieno[3,2-d]pyrimidin-1(2H)-yl)-2-methylpropanenitrile] | 10.4 |  |  |  | 15.9
COc1cccc(Cl)c1-c1ccc2c(=O)n(-c3cncc4ccccc34)c(=O)[nH]c2c1 [Example 58] |  | 164 |  | 158 | 
COc1cc(-c2cc3c(s2)c(=O)n(-c2cncc4ccccc24)c(=O)n3CCC#N)c(C#N)cc1F (single isomer, unassigned) [Example 967, 2-(1-(2-cyanoethyl)-3-(isoquinolin-4-yl)-2,4-dioxo-1,2,3,4-tetrahydrothieno[3,2-d]pyrimidin-6-yl)-5-fluoro-4-methoxybenzonitrile] | 1.82 |  | 1.83 |  | 
COc1cnc(Cl)c(-c2cc3c(s2)c(=O)n(-c2cncc(C(F)F)c2)c(=O)n3CCC#N)c1 [Example 889] | 14.2 |  |  |  | 64.8
N#Cc1ccccc1-c1cc2[nH]c(=O)n(-c3cncc4ccccc34)c(=O)c2cc1F [Example 67] |  | 213 |  | 88.8 | 
COc1cc(-c2cc3[nH]c(=O)n(-c4cncc5ccccc45)c(=O)c3s2)c(Cl)cc1C [Example 341] |  | 4.62 |  | 5.44 | 
O=c1[nH]c2cc(-c3cc(Cl)ccc3Cl)ccc2c(=O)n1-c1cncc2ccccc12 [Example 60] |  | 227 |  | 192 | 
